From the supplement of paper PMC11451515

How the values were obtained:
Settings in all cases: 48 h
P12-Ichikawa [1] = assay: AUC of viability dose-response curve (% viability x log10 dose units); higher = less sensitive
Summary of the method: (§1)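 Leukemia cells adapted to each medium were seeded in 1536-well plates (500 or 1000 cells/well) and given library compounds in DMSO for 48 h at 37°C. The 11 threefold doses spanned 47 μM to 0.79 nM, and CellTiter-Glo One luminescence was normalised per plate to DMSO and cell-free wells before four-parameter log-logistic fitting on log10 dose. Area under the curve was integrated with the trapezoidal rule, scaling curves above full viability and removing curves that failed quality control.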

SEM cells [2] = assay: as above
Summary of the method: as §1

NOMO1 [3] = assay: as above
Summary of the method: as §1

P12-Ichikawa [4] = assay: cell viability relative to DMSO control; higher = less cytotoxic
Summary of the method: (§2)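 NOMO1 or SEM (500 cells/well) or P12-Ichikawa (1000 cells/well) leukemia cells were adapted for at least four passages in each medium. They were seeded in 1536-well plates (5 μl) and pin-dosed with library compounds in DMSO over an 11-point threefold series, 47 μM to 0.79 nM. CellTiter-Glo One luminescence was read after 48 h at 37°C. Viability is the per-plate percentage relative to DMSO wells, with cell-free wells as background.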

SEM cells [5] = assay: as above
Summary of the method: as §2

NOMO1 [6] = assay: as above
Summary of the method: as §2

CCCn1c(=O)c2[nH]c(-c3cnn(Cc4cccc(C(F)(F)F)c4)c3)nc2n(CC)c1=O
AUC of viability dose-response curve
Settings	NOMO1 [3]	P12-Ichikawa [1]	SEM cells [2]
HPLM + 10% dialyzed FBS	394	446	470
RPMI 5 mM glucose + 10% FBS	443	388	467
RPMI 5 mM glucose + 10% dialyzed FBS	413	438	467

cell viability [%]
Settings	NOMO1 [6]	P12-Ichikawa [4]	SEM cells [5]
HPLM + 10% dialyzed FBS, 0.000781 µM	111	108	100
HPLM + 10% dialyzed FBS, 0.00234 µM	113	106	109
HPLM + 10% dialyzed FBS, 0.00702 µM	102	122	111
HPLM + 10% dialyzed FBS, 0.0211 µM	125	112	120
HPLM + 10% dialyzed FBS, 0.0632 µM	115	112	109
HPLM + 10% dialyzed FBS, 0.19 µM	116	115	124
HPLM + 10% dialyzed FBS, 0.569 µM	96	109	124
HPLM + 10% dialyzed FBS, 1.71 µM	82.4	106	113
HPLM + 10% dialyzed FBS, 5.12 µM	64.1	88.1	107
HPLM + 10% dialyzed FBS, 15.4 µM	56.4	83.3	109
HPLM + 10% dialyzed FBS, 46.1 µM	43.5	84.7	95.4
RPMI 5 mM glucose + 10% FBS, 0.000781 µM	92.7	115	95.8
RPMI 5 mM glucose + 10% FBS, 0.00234 µM	93.1	124	89.9
RPMI 5 mM glucose + 10% FBS, 0.00702 µM	101	123	106
RPMI 5 mM glucose + 10% FBS, 0.0211 µM	103	137	109
RPMI 5 mM glucose + 10% FBS, 0.0632 µM	103	125	103
RPMI 5 mM glucose + 10% FBS, 0.19 µM	105	118	108
RPMI 5 mM glucose + 10% FBS, 0.569 µM	102	85.6	99.8
RPMI 5 mM glucose + 10% FBS, 1.71 µM	98.8	73	94.4
RPMI 5 mM glucose + 10% FBS, 5.12 µM	82.7	65.1	116
RPMI 5 mM glucose + 10% FBS, 15.4 µM	69.8	74.6	109
RPMI 5 mM glucose + 10% FBS, 46.1 µM	61.5	72.9	90.5
RPMI 5 mM glucose + 10% dialyzed FBS, 0.000781 µM	98.6	114	109
RPMI 5 mM glucose + 10% dialyzed FBS, 0.00234 µM	104	109	109
RPMI 5 mM glucose + 10% dialyzed FBS, 0.00702 µM	92.1	105	111
RPMI 5 mM glucose + 10% dialyzed FBS, 0.0211 µM	81.6	108	111
RPMI 5 mM glucose + 10% dialyzed FBS, 0.0632 µM	105	107	116
RPMI 5 mM glucose + 10% dialyzed FBS, 0.19 µM	103	109	124
RPMI 5 mM glucose + 10% dialyzed FBS, 0.569 µM	85.3	109	109
RPMI 5 mM glucose + 10% dialyzed FBS, 1.71 µM	80.6	103	104
RPMI 5 mM glucose + 10% dialyzed FBS, 5.12 µM	76.9	81.4	112
RPMI 5 mM glucose + 10% dialyzed FBS, 15.4 µM	65.2	73.6	117
RPMI 5 mM glucose + 10% dialyzed FBS, 46.1 µM	44.7	68.8	98.4

CCCN[S+](=O)([O-])Nc1ncnc(OCCOc2ncc(Br)cn2)c1-c1ccc(Br)cc1
AUC of viability dose-response curve
Settings	NOMO1 [3]	P12-Ichikawa [1]	SEM cells [2]
HPLM + 10% dialyzed FBS	442	457	470
RPMI 5 mM glucose + 10% FBS	468	431	468
RPMI 5 mM glucose + 10% dialyzed FBS	468	452	429

SEM cells [5], HPLM + 10% dialyzed FBS
Settings	cell viability [%]
0.000781 µM	125
0.00234 µM	120
0.00702 µM	123
0.0211 µM	120
0.0632 µM	123
0.19 µM	137
0.569 µM	123
1.71 µM	123
5.12 µM	124
15.4 µM	131
46.1 µM	88.8

C/C=C(/C(=C/C)c1ccc(O)cc1)c1ccc(O)cc1
AUC of viability dose-response curve
Settings	NOMO1 [3]	P12-Ichikawa [1]	SEM cells [2]
HPLM + 10% dialyzed FBS	464	469	464
RPMI 5 mM glucose + 10% FBS	431	465	467
RPMI 5 mM glucose + 10% dialyzed FBS	457	465	465

CCC(C)N(C)C(=O)c1cc2ccccc2c(-c2ccccc2Cl)n1 (centres undefined)
AUC of viability dose-response curve
Settings	NOMO1 [3]	P12-Ichikawa [1]	SEM cells [2]
HPLM + 10% dialyzed FBS	452	462	461
RPMI 5 mM glucose + 10% FBS	473	471	460
RPMI 5 mM glucose + 10% dialyzed FBS	453	463	464

CCC1=C2C=C(OC(=O)N3CCC(CC3)N4CCCCC4)C=CC2=NC\5=C1CN6C(=O)\C7=C(/C=C56)[C@@](O)(CC)C(=O)OC7
AUC of viability dose-response curve
Settings	NOMO1 [3]	P12-Ichikawa [1]	SEM cells [2]
HPLM + 10% dialyzed FBS	380	324	366
RPMI 5 mM glucose + 10% FBS	380	313	356
RPMI 5 mM glucose + 10% dialyzed FBS	380	326	353

SEM cells [5], RPMI 5 mM glucose + 10% FBS
Settings	cell viability [%]
0.000781 µM	110
0.00234 µM	127
0.00702 µM	104
0.0211 µM	106
0.0632 µM	49.5
0.19 µM	104
0.569 µM	107
1.71 µM	65.2
5.12 µM	15.4
15.4 µM	13.1
46.1 µM	9.69

COc1ccc(CCC(=O)Nc2nc3ccc(Cl)cc3s2)cc1OC
AUC of viability dose-response curve
Settings	NOMO1 [3]	P12-Ichikawa [1]	SEM cells [2]
HPLM + 10% dialyzed FBS	454	466	463
RPMI 5 mM glucose + 10% FBS	458	472	461
RPMI 5 mM glucose + 10% dialyzed FBS	455	462	472

cell viability [%]
Settings	NOMO1 [6]	P12-Ichikawa [4]	SEM cells [5]
HPLM + 10% dialyzed FBS, 0.000781 µM	120	106	104
HPLM + 10% dialyzed FBS, 0.00234 µM	106	106	114
HPLM + 10% dialyzed FBS, 0.00702 µM	111	106	121
HPLM + 10% dialyzed FBS, 0.0211 µM	135	112	111
HPLM + 10% dialyzed FBS, 0.0632 µM	122	111	120
HPLM + 10% dialyzed FBS, 0.19 µM	126	107	104
HPLM + 10% dialyzed FBS, 0.569 µM	123	110	116
HPLM + 10% dialyzed FBS, 1.71 µM	101	102	112
HPLM + 10% dialyzed FBS, 5.12 µM	106	104	132
HPLM + 10% dialyzed FBS, 15.4 µM	122	99.3	116
HPLM + 10% dialyzed FBS, 46.1 µM	86.2	98.6	111
RPMI 5 mM glucose + 10% FBS, 0.000781 µM	107	109	112
RPMI 5 mM glucose + 10% FBS, 0.00234 µM	104	118	92.8
RPMI 5 mM glucose + 10% FBS, 0.00702 µM	113	94.9	108
RPMI 5 mM glucose + 10% FBS, 0.0211 µM	105	114	102
RPMI 5 mM glucose + 10% FBS, 0.0632 µM	122	111	123
RPMI 5 mM glucose + 10% FBS, 0.19 µM	117	110	127
RPMI 5 mM glucose + 10% FBS, 0.569 µM	113	110	124
RPMI 5 mM glucose + 10% FBS, 1.71 µM	94.4	108	126
RPMI 5 mM glucose + 10% FBS, 5.12 µM	105	109	115
RPMI 5 mM glucose + 10% FBS, 15.4 µM	100	107	104
RPMI 5 mM glucose + 10% FBS, 46.1 µM	96.6	92.1	95
RPMI 5 mM glucose + 10% dialyzed FBS, 0.000781 µM	114	113	120
RPMI 5 mM glucose + 10% dialyzed FBS, 0.00234 µM	99.3	94.1	102
RPMI 5 mM glucose + 10% dialyzed FBS, 0.00702 µM	119	105	105
RPMI 5 mM glucose + 10% dialyzed FBS, 0.0211 µM	108	113	113
RPMI 5 mM glucose + 10% dialyzed FBS, 0.0632 µM	120	110	120
RPMI 5 mM glucose + 10% dialyzed FBS, 0.19 µM	110	105	107
RPMI 5 mM glucose + 10% dialyzed FBS, 0.569 µM	106	99.7	101
RPMI 5 mM glucose + 10% dialyzed FBS, 1.71 µM	102	105	121
RPMI 5 mM glucose + 10% dialyzed FBS, 5.12 µM	104	103	102
RPMI 5 mM glucose + 10% dialyzed FBS, 15.4 µM	98.2	91.9	117
RPMI 5 mM glucose + 10% dialyzed FBS, 46.1 µM	91.2	92.6	105
